{"source": "paper PMC10779433", "about": "“Bidirectional Allosteric Coupling between PIP2 Binding and the Pore of the Oncochannel TRPV6” (International Journal of Molecular Sciences, 2024)", "key": {"TRPV6 I575A [1]": {"test_system": "TRPV6 I575A", "experiment": "NFAT screen, TRPV6 I575A", "assay_type": "cell-based, human", "details": "HEK293 cells; 5 μM cis-22a, 2 h, vs DMSO", "experimental": "(§1) N-terminally TagRFP-labeled human TRPV6 (725 aa) was kindly provided by R. Bhardwaj and M. Hediger (University of Bern, Bern, Switzerland). This variant is translated from the first ATG codon and thus deviates from the non-ATG-initiated protein which is expressed in vivo (accession number NM_018646.6) by lacking 40 amino acids of the very N-terminus. For N-terminal labeling with EYFP, TRPV6 was cloned into pEYFP-C1 (Clontech) via EcoRI and SacII restriction sites. […]\n(§2) After incubation, cover slips were carefully rinsed with phenol red-free DMEM supplemented with the compound and dosage corresponding to the previous incubation, which was then also present during imaging. […] Subcellular NFAT localization of TRPV6 expressing cells was again monitored on an Axiovert 135 inverted microscope (Zeiss, Oberkochen, Germany), as described in more detail before. […] Images were analyzed using Matlab2018a, differentiating between three cell populations based on the ratio of CFP emission intensity originating from the nucleus and the cytosol, similar to Schober et al. (2019)."}, "TRPV6 I575A [2]": {"test_system": "TRPV6 I575A", "parameters": "method as in PMID 33246965", "details": "HEK293 cells; 0.1 μM and 10 μM cis-22a; Figure 5B; ref [47]; cited from earlier work"}, "TRPV6 W593A": {"test_system": "TRPV6 W593A", "experiment": "NFAT screen, TRPV6 W593A", "assay_type": "cell-based, human", "details": "HEK293 cells; 5 μM cis-22a, 2 h", "experimental": "as §1, §2"}, "TRPV6 W583F": {"test_system": "TRPV6 W583F", "parameters": "method as in PMID 33246965", "details": "ref [47], cited from earlier work"}, "TRPV6 D580K": {"test_system": "TRPV6 D580K", "parameters": "method as in PMID 33246965", "details": "HEK293 cells; 0.1 μM and 10 μM cis-22a; Figure 5B; ref [47]; cited from earlier work"}, "TRPV6 R470A": {"test_system": "TRPV6 R470A", "experiment": "NFAT screen, TRPV6 R470A", "assay_type": "cell-based, human", "details": "HEK293 cells; 5 μM cis-22a, 2 h, vs DMSO", "experimental": "as §1, §2"}, "TRPV6 WT": {"biological_target": "T1, TRPV6 WT (Homo sapiens, UniProt Q9H1D0)", "T1 construct": "expressed in transfected cells; host or cells: HEK293 cells, transient transfection", "T1 sequence (Q9H1D0 41-765 limits assumed)": "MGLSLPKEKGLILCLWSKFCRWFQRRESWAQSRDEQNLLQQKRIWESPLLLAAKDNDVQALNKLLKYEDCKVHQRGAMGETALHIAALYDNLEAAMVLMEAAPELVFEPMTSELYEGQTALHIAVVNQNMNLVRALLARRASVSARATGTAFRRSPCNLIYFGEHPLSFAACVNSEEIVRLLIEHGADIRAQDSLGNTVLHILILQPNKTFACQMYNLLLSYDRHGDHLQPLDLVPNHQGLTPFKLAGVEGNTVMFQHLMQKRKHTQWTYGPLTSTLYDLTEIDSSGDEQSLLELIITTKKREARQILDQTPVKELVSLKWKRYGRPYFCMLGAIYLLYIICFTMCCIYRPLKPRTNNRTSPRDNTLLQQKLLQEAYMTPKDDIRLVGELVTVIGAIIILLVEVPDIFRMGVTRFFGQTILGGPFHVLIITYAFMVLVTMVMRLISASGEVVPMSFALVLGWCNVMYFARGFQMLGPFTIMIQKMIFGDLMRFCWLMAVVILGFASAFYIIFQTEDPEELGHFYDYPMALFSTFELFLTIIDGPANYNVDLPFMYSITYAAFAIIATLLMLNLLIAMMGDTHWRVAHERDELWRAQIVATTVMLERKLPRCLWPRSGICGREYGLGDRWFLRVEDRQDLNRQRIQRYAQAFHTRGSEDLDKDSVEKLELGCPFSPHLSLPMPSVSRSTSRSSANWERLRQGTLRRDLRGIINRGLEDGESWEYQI", "experiment": "Fura-2 Ca2+ imaging, TRPV6 WT", "assay_type": "cell-based", "details": "20 μM pal-PIP2 peptide; for inhibition at 20 µM: HEK293, read-out: mean percentage of inhibition (Fura-2 signal), HEK293 cells"}}, "note": "pIC50: −log10 of the molar value. Like-named read-outs stand apart in the source and are kept apart here. Residues, ends and D or L forms follow the SMILES beside them. *: point of attachment. Palmitoyl = CCCCCCCCCCCCCCCC(=O)*", "data": [{"smiles": "Cc1cccc(C2CCC(N3CCN(c4cccnc4)CC3)CC2)c1.O=C(O)C(F)(F)F", "note": "(stereo not drawn) [cis-22a]", "values": [{"measurement": "change of nuclear NFAT localization", "setting": "TRPV6 I575A [1]", "value": "not significantly changed"}, {"measurement": "response to cis-22a vs TRPV6 WT", "setting": "TRPV6 I575A [2]", "value": "significantly reduced response"}, {"measurement": "reduction in nuclear NFAT", "setting": "TRPV6 W593A", "value": "lower yet significant decrease in the proportion of cells showing NFAT in the nucleus"}, {"measurement": "response to cis-22a vs TRPV6 WT", "setting": "TRPV6 W583F; HEK293 cells, 0.1 μM and 10 μM cis-22a, Figure 5B", "value": "significantly reduced response"}, {"measurement": "pIC50", "setting": "TRPV6 W583F; TRPV6 W583F", "value": "~5.21"}, {"measurement": "response to cis-22a vs TRPV6 WT", "setting": "TRPV6 D580K", "value": "significantly reduced response"}, {"measurement": "reduction of nuclear NFAT localization", "setting": "TRPV6 R470A", "value": "failed to significantly reduce NFAT nuclear localization"}]}, {"smiles": "CCCCCCCCCCCCCCCC(=O)N[C@@H](Cc1c[nH]cn1)C(=O)N[C@@H](CCCNC(=N)N)C(=O)N[C@@H](CCC(N)=O)C(=O)N[C@@H](CCCCN)C(=O)N[C@@H](Cc1c[nH]cn1)C(=O)N[C@@H](Cc1ccccc1)C(=O)N[C@@H](CCC(=O)O)C(=O)N[C@@H](CCCCN)C(=O)N[C@@H](CCCNC(=N)N)C(=O)N[C@@H](CCCNC(=N)N)C(N)=O", "note": "[pal-PIP2 peptide] (Palmitoyl-HRQKHFEKRR-NH2)", "values": [{"measurement": "inhibition at 20 µM", "setting": "TRPV6 WT; applied after 0.5 μM cis-22a, Figure 6D, not significantly different from reverse order", "value": 9.18, "unit": "%"}, {"measurement": "inhibition at 20 µM", "setting": "TRPV6 WT; applied first (before cis-22a), Figure 6C", "value": 10.8, "unit": "%"}, {"measurement": "decrease in cytosolic Ca2+ level", "setting": "TRPV6 WT; HEK293 cells, 2 mM Ca2+, Figure 1B, significantly stronger than control peptide (p < 0.05)", "value": "approximately 11%"}, {"measurement": "reduction of intracellular Ca2+ level", "setting": "TRPV6 WT; HEK293 cells, 2 mM Ca2+, Figure 2A, comparison with G488R", "value": "about 13%"}]}]}
